Assays:
Type in all cases: in vivo, rat
male ZSF1 rats [1] = assay: Treatment of male ZSF1 rats for 24 weeks with 2-hydroxyestradiol or 2-methoxyestradiol; settings: 10 ug/kg/hr, 28 weeks, versus control animals
female ZSF1 rats = assay: Treatment of ovarectomized female ZSF1 rats for 24 weeks with 2-hydroxyestradiol; settings: 10 ug/kg/hr
Experimental: Male ZSF1 rats were treated continuously for 24 weeks with polyethylene glycol 400 (PEG 400) (Sigma, St. Louis, Mo.) or one of three doses of 2-hydroxyestradiol or 2-methoxyestradiol (Steraloids, Inc. Newport, R.I.) dissolved in PEG 400. The three doses were 1 ug/kg/hr, 3 ug/kg/hr or 10 ug/kg/hr. Female ZSF1 rats were treated continuously for 24 weeks with either PEG 400 or 10 ug/kg/hr of 2-hydroxyestradiol. Female ZSF1 rats were ovarectomized at 11 weeks of age. For all animals, both male and female, treatments with estradiol metabolites were begun at approximately 13 weeks of age. […]
Metabolic cages (Nalgene, Rochester, N.Y.) were used in this study. […] The first 24-hour period was considered an acclimation period, while food and fluid intake and urine volume were measured during the second 24-hour period. […] The blood was further analyzed to assess creatinine clearance, fractional sodium excretion, fractional potassium excretion and fractional albumin excretion. In addition, the following criteria were also assessed while the animals were in the metabolic cages: body weight, feed intake, water intake, urine output, urinary protein, urinary albumin, urinary glucose, urinary sodium and urinary potassium. […]
(§1) Food intake was measured by filling the food containers with standard powder laboratory food up to a total weight of 250 grams. […]

male ZSF1 rats [2] = assay: Treatment of male ZSF1 rats for 24 weeks with 2-hydroxyestradiol or 2-methoxyestradiol
Experimental: Male ZSF1 rats were treated continuously for 24 weeks with polyethylene glycol 400 (PEG 400) (Sigma, St. Louis, Mo.) or one of three doses of 2-hydroxyestradiol or 2-methoxyestradiol (Steraloids, Inc. Newport, R.I.) dissolved in PEG 400. The three doses were 1 ug/kg/hr, 3 ug/kg/hr or 10 ug/kg/hr. Female ZSF1 rats were treated continuously for 24 weeks with either PEG 400 or 10 ug/kg/hr of 2-hydroxyestradiol. Female ZSF1 rats were ovarectomized at 11 weeks of age. For all animals, both male and female, treatments with estradiol metabolites were begun at approximately 13 weeks of age. One group of male ZSF1 rats received only PEG 400 but were pair fed to receive the same daily food intake as the male ZSF1 rats treated with 10 ug/kg/hr 2-hydroxyestradiol. Treatment was administered via subcutaneous implanted pumps (Alzet Osmotic Pump, Model 2ML4, Alza Corporation, Palo Alto, Calif.). The study was designed to evaluate treatment effects and dose responses on body weight, food intake, water intake, urine output, urinary protein excretion, cholesterol levels, plasma glucose levels and glucose tolerance.
Stock solutions of both 2-hydroxyestradiol and 2-methoxyestradiol were made by dissolving the required amount of estradiol metabolite in PEG 400. This solution was diluted in PEG 400 to deliver the three required doses based on the mean weight of each treatment group and the stated volume delivery rate for each lot of osmotic pumps in the study. This stock solution was prepared fresh prior to each osmotic pump implantation in each group. The control solution of PEG 400 was created in the same manner.
All treatments were administered via a subcutaneously implanted osmotic pump (Alzet Osmotic Pump, Model 2ML4, Alza Corporation, Palo Alto, Calif.). Each lot of osmotic pumps were delivered with the stated rate of delivery and formulation concentrations were adjusted to ensure delivery of 1,3, or 10 ug/kg/hr based on the stated rate of delivery of each lot. Doses were adjusted for the mean weight of the animals in the treatment group obtained 24 hours prior to implantation of the osmotic minipump.
Animals were anesthetized prior to implantation of an osmotic minipump with halothane and oxygen (2.5 liter/min) delivered by a Fluotec 3 anesthetic device (Ohmeda, Steeton, UK). After lightly anesthetizing each animal, implantation was accomplished by shaving the back and creating a half-inch incision in which to insert the osmotic minipump. The incision was then closed with wound clips that were removed in seven days. Osmotic minipumps were replaced at 33-day intervals and each time a particular animal received an osmotic minipump, the insertion point was changed.
Metabolic cages (Nalgene, Rochester, N.Y.) were used in this study. Animals were placed in metabolic cages for 48 hours. The first 24-hour period was considered an acclimation period, while food and fluid intake and urine volume were measured during the second 24-hour period. Additionally, a tail vein sample was obtained to measure blood glucose, sodium, potassium, albumin and creatinine. The blood was further analyzed to assess creatinine clearance, fractional sodium excretion, fractional potassium excretion and fractional albumin excretion. In addition, the following criteria were also assessed while the animals were in the metabolic cages: body weight, feed intake, water intake, urine output, urinary protein, urinary albumin, urinary glucose, urinary sodium and urinary potassium.
Body weights were assessed 24 hours before pump implantation and those weights were used to calculate the dosage of drug or vehicle to be given to each animal based on the mean body weight of each group. Animals were weighed approximately once every two months prior to being placed in a metabolic cage.
as §1

[3] = male, 10 ug/kg/hr, 24 weeks, versus control animals
[4] = male, 1, 3 or 10 ug/kg/hr s.c. osmotic pump, 24 weeks, versus control

C[C@]12CC[C@@H]3c4cc(O)c(O)cc4CC[C@H]3[C@@H]1CC[C@@H]2O [2-hydroxyestradiol, estra-1,3,5 (10)-triene-2,3,1 7-triol (17β)]
Glycated hemoglobin (HbA1c) (FIG. 14) (male ZSF1 rats [1]): lower
Leptin levels (FIG. 11) (female ZSF1 rats; 20 weeks, versus control animals): reduced
Blood urea nitrogen (FIG. 10) (female ZSF1 rats; 24 weeks, versus control groups): lower
Leptin levels (FIG. 11) (male ZSF1 rats [2]; male, 10 ug/kg/hr, 20 weeks, versus control animals): clearly reduced
24-hour urine output (FIG. 13) (male ZSF1 rats [2]; [3]): lower
24-hour water intake (FIG. 12) (male ZSF1 rats [2]; [3]): lower
Blood urea nitrogen (FIG. 10) (male ZSF1 rats [2]; male, 10 ug/kg/hr, 24 weeks, versus control groups): lower
Plasma level of glucose after administration of 2 g/4 ml/kg glucose (oral glucose tolerance test, FIGS. 8 and 9) (male ZSF1 rats [2]; male, 10 ug/kg/hr, treated for 14 to 15 weeks, versus control groups): lower
Body weight gain (FIGS. 4 and 5) (male ZSF1 rats [2]; [4]): less body weight gain
Food intake (male ZSF1 rats [2]; [4]): lower food intake
Urinary protein excretion (FIG. 7) (male ZSF1 rats [2]; male, 1, 3 or 10 ug/kg/hr, after 24 weeks of treatment, versus control animals): lower
